This note sets out measurements from ChEMBL document CHEMBL6114952, “Synthesis and antitumor effects of novel betulinic acid derivatives bearing electrophilic moieties” (Bioorg Med Chem, 2025).

Type in all cases: functional, cell-based
Experiment [1] concerns MCF7. The experiment is described as follows: Antiproliferative activity against human MCF7 cells assessed as inhibition of cell proliferation incubated for 48 hrs by MTT assay. To be noted: MCF7, 48 h. On the technique in general: Formazan colour is commonly taken as a measure of viable cells.
Experiment [2] relates to HeLa. The experiment is described as follows: Antiproliferative activity against human HeLa cells assessed as inhibition of cell proliferation incubated for 48 hrs by MTT assay.
Experiment [3] has as its system MDA-MB-231. In words: Antiproliferative activity against human MDA-MB-231 cells assessed as inhibition of cell proliferation incubated for 48 hrs by MTT assay. The conditions noted are these: MDA-MB-231, 48 h.

pIC50: −log10 of the molar value. Where only a bound is given, the exact number is not on record here.

As to `C=C(C)[C@@H]1CC[C@]2(C(=O)O)CC[C@]3(C)[C@H](CC[C@@H]4[C@@]5(C)CC[C@H](OC(=O)NCCCNC(=O)CCl)C(C)(C)[C@@H]5CC[C@]43C)[C@@H]12`, the pIC50 was 5.14 in experiment [1], 5.13 in experiment [2] and 5.07 in experiment [3].

Take `C=C(C)[C@@H]1CC[C@]2(C(=O)N3CCN(C(=O)CCl)CC3)CC[C@]3(C)[C@H](CC[C@@H]4[C@@]5(C)CC[C@H](OC(=O)Nc6ccccc6)C(C)(C)[C@@H]5CC[C@]43C)[C@@H]12`: the pIC50 in experiment [1], in experiment [2] and in experiment [3] was < 4.00 each time.

As for `C=CC(=O)O[C@H]1CC[C@]2(C)[C@H]3CC[C@@H]4[C@H]5[C@H](C(=C)C)CC[C@]5(C(=O)O)CC[C@@]4(C)[C@]3(C)CC[C@H]2C1(C)C`, the pIC50 in experiment [1] was 4.45; in experiment [2], 4.47; in experiment [3] it was 4.51.

As for `C=C(C)[C@@H]1CC[C@]2(C(=O)O)CC[C@]3(C)[C@H](CC[C@@H]4[C@@]5(C)CC[C@H](OC(=O)CC)C(C)(C)[C@@H]5CC[C@]43C)[C@@H]12`, the pIC50 in experiment [1] is 4.35; in experiment [2] it was 4.40; in experiment [3], 4.51.

Turning to `C=C(C)[C@@H]1CC[C@]2(C(=O)O)CC[C@]3(C)[C@H](CC[C@@H]4[C@@]5(C)CC[C@H](OC(C)=O)C(C)(C)[C@@H]5CC[C@]43C)[C@@H]12`, the pIC50 in experiment [1] was 4.36; in experiment [2], 4.49; in experiment [3], 4.46.

As to `C=C(C)[C@@H]1CC[C@]2(C(=O)O)CC[C@]3(C)[C@H](CC[C@@H]4[C@@]5(C)CC[C@H](OC(=O)CCl)C(C)(C)[C@@H]5CC[C@]43C)[C@@H]12`, the pIC50 in experiment [1] was 4.79; in experiment [2], 4.82; in experiment [3], 4.75.

For the molecule `C=C(C)[C@@H]1CC[C@]2(C(=O)O)CC[C@]3(C)[C@H](CC[C@@H]4[C@@]5(C)CC[C@H](OC(=O)NCCNC(=O)CCl)C(C)(C)[C@@H]5CC[C@]43C)[C@@H]12`, the pIC50 is 5.17 in experiment [1], 5.06 in experiment [2] and 5.02 in experiment [3].

`C=C(C)[C@@H]1CC[C@]2(C(=O)O)CC[C@]3(C)[C@H](CC[C@@H]4[C@@]5(C)CC[C@@H](OC(=O)CCl)C(C)(C)[C@@H]5CC[C@]43C)[C@@H]12`: the pIC50 in experiment [1] and in experiment [2] was 4.77 each time.

As to `C=C(C)[C@@H]1CC[C@]2(C(=O)O)CC[C@]3(C)[C@H](CC[C@@H]4[C@@]5(C)CC[C@H](OC(=O)CBr)C(C)(C)[C@@H]5CC[C@]43C)[C@@H]12`, the pIC50 in experiment [1] was 4.76; in experiment [2] it was 4.73; in experiment [3], 4.73.

`C=C(C)[C@@H]1CC[C@]2(C(=O)N3CCN(C)CC3)CC[C@]3(C)[C@H](CC[C@@H]4[C@@]5(C)CC[C@H](OC(=O)N6CCN(C(=O)CCl)CC6)C(C)(C)[C@@H]5CC[C@]43C)[C@@H]12`: the pIC50 was 4.68 in experiment [1], 4.67 in experiment [2] and 4.59 in experiment [3].

As for `C=C(C)[C@@H]1CC[C@]2(C(=O)O)CC[C@]3(C)[C@H](CC[C@@H]4[C@@]5(C)CC[C@H](OC(=O)NCCCCNC(=O)CCl)C(C)(C)[C@@H]5CC[C@]43C)[C@@H]12`, the results for the pIC50 in experiment [1], in experiment [2] and in experiment [3] were 5.14, 5.06 and 5.05, respectively.

In the case of `C=C(C)[C@@H]1CC[C@]2(C(=O)OC)CC[C@]3(C)[C@H](CC[C@@H]4[C@@]5(C)CC[C@H](OC(=O)CCl)C(C)(C)[C@@H]5CC[C@]43C)[C@@H]12`, the pIC50 in experiment [1], in experiment [2] and in experiment [3] was < 4.12 throughout.

`C=C(C)[C@@H]1CC[C@]2(C(=O)N3CCN(C(C)=O)CC3)CC[C@]3(C)[C@H](CC[C@@H]4[C@@]5(C)CCC(=O)C(C)(C)[C@@H]5CC[C@]43C)[C@@H]12`: the pIC50 in experiment [1] is 4.52; in experiment [2], 4.52; in experiment [3], 4.44.

As for `C=C(C)[C@@H]1CC[C@]2(C(=O)N3CCN(C(=O)CCl)CC3)CC[C@]3(C)[C@H](CC[C@@H]4[C@@]5(C)CCC(=O)C(C)(C)[C@@H]5CC[C@]43C)[C@@H]12`, the pIC50 is 5.60 in experiment [1] and 5.70 in experiment [2].

Take `C=CCNC(=O)[C@]12CC[C@@H](C(=C)C)[C@@H]1[C@H]1CC[C@@H]3[C@@]4(C)CC[C@H](OC(=O)N5CCN(C(=O)CCl)CC5)C(C)(C)[C@@H]4CC[C@@]3(C)[C@]1(C)CC2`: the figures for the pIC50 in experiment [1], in experiment [2] and in experiment [3] were 4.78, 4.76 and 4.75, respectively.

Take `C=C(C)[C@@H]1CC[C@]2(C(=O)O)CC[C@]3(C)[C@H](CC[C@@H]4[C@@]5(C)CC[C@H](OC(=O)C(Cl)Cl)C(C)(C)[C@@H]5CC[C@]43C)[C@@H]12`: the pIC50 in experiment [1] is 4.29; in experiment [2] it was 4.18; in experiment [3] it was 4.45.

On to `C=C(C)[C@@H]1CC[C@]2(C(=O)OCc3ccccc3)CC[C@]3(C)[C@H](CC[C@@H]4[C@@]5(C)CC[C@H](OC(=O)NC(=O)CCl)C(C)(C)[C@@H]5CC[C@]43C)[C@@H]12`, for which the negative logarithm of the IC50 (pIC50) in experiment [1], in experiment [2] and in experiment [3] was < 3.82 each time.

Take `C=C(C)[C@@H]1CC[C@]2(C(=O)OCc3ccccc3)CC[C@]3(C)[C@H](CC[C@@H]4[C@@]5(C)CC[C@H](OC(=O)N6CCN(C(=O)CCl)CC6)C(C)(C)[C@@H]5CC[C@]43C)[C@@H]12`: the pIC50 in experiment [1], in experiment [2] and in experiment [3] was < 4.00 in each case.

With `C=C(C)[C@@H]1CC[C@]2(C(=O)O)CC[C@]3(C)[C@H](CC[C@@H]4[C@@]5(C)CC[C@H](O)C(C)(C)[C@@H]5CC[C@]43C)[C@@H]12` [BETULINIC ACID], the negative-log IC50 (pIC50) in experiment [1] is 4.39; in experiment [2], 4.29; in experiment [3] it was 4.18.

For `C=C(C)[C@@H]1CC[C@]2(C(=O)OCc3ccccc3)CC[C@]3(C)[C@H](CC[C@@H]4[C@@]5(C)CC[C@@H](OC(=O)CCl)C(C)(C)[C@@H]5CC[C@]43C)[C@@H]12`, the pIC50 in experiment [1] and in experiment [2] was < 4.12 throughout.

Take `C=C(C)[C@@H]1CC[C@]2(C(=O)N3CCNCC3)CC[C@]3(C)[C@H](CC[C@@H]4[C@@]5(C)CCC(=O)C(C)(C)[C@@H]5CC[C@]43C)[C@@H]12`: the pIC50 in experiment [1] is 5.40; in experiment [2], 5.52; in experiment [3] it was 5.52.

Take `C=C(C)[C@@H]1CC[C@]2(C(=O)OCc3ccccc3)CC[C@]3(C)[C@H](CC[C@@H]4[C@@]5(C)CC[C@H](OC(=O)CCl)C(C)(C)[C@@H]5CC[C@]43C)[C@@H]12`: the pIC50 in experiment [1], in experiment [2] and in experiment [3] was < 4.12 throughout.

Regarding `C=C(C)[C@@H]1CC[C@]2(C(=O)O)CC[C@]3(C)[C@H](CC[C@@H]4[C@@]5(C)CC[C@H](OC(=O)N6CCN(C(=O)C(F)(F)Cl)CC6)C(C)(C)[C@@H]5CC[C@]43C)[C@@H]12`, the values for the pIC50 in experiment [1], in experiment [2] and in experiment [3] were 4.51, 4.51 and 4.58, respectively.

By pIC50 is commonly meant the IC50 on a negative log10 scale, so that one unit is a factor of ten.
